Measured values: patent publication US20240415804A1, “METHOD OF TREATING PANCREATIC CANCER” (University of South Florida, priority 2022, published 2024)

Columns and labels:
Details in all cases: miR-155 inhibitor 100 nM, 24 h, vs scrambled miRNA
miR-155 [1] = experiment: miR-155 gene expression by RT-qPCR in MiaPaCa-2 cells; assay type: cell-based, human
Protocol: (§1) MiR-155 is known to be overexpressed in different cancers, including PC^21, 23. The inventors first assessed whether apigenin could modulate the expression of miR-155 in PC cells. Murine PC cell lines Panc02 and UN-KC-6141 as well as the human PC cell line MiaPaCa-2 were treated with API (40 μM) or DMSO vehicle for 24 h and the expression of miR-155 was examined using RT-qPCR assay. […] Since API is known to inhibit the growth of cancer cells, including PC cells^39-43, 47-50, the same PC cell lines were treated with API (40 μM) or DMSO (vehicle) for 24 h and examined cell viability using MTT assay. […] Moreover, Panc02 and UN-KC-6141 cells were then treated with API at a dose dependent concentration (10, 20, 30, 40, 50 μM) and detected apoptosis using flow cytometry (Annexin V and PI).
(§2) miR-155 is implicated in the development of pancreatic tumors from pancreatic intraepithelial neoplasia (PanIN) lesions, and is overexpressed in PC^23. The inventors examined whether the depletion of miR-155 modulated PC viability. Murine and human PC cell lines were transfected with miR-155 inhibitor (i.e., MMU-MIR-155-5P/HSA-MIR-155-5P) and scrambled miRNA at a concentration of 100 nM for 24 h and cell viability determined using an MTT assay. The expression of miR-155 was examined using an RT-qPCR assay as well. […]

MiaPaCa-2 cells = experiment: MTT cell viability assay, MiaPaCa-2; assay type: cell-based, human
Protocol: (§3) The methyl thiazol tetrazolium (MTT) assay was performed as described previously^58. Briefly, MiaPaCa-2, Panc02 and UN-KC-6141 cells were seeded in 96-well plates at a density of 3000 cells/well and allowed to attach overnight. PC cells were then treated with API (40 μM) or DMSO (1%) as vehicle control for 24 h at 37° C. in 5% CO2 incubator. After 24 h, media was replaced with 20 μL of MTT (1 mg/mL) (Sigma-Aldrich) and incubated for 3 h at 37° C. in 5% CO2. MTT was replaced with DMSO, and absorbance was read at 570 nm.
(§4) MiaPaCa-2, Panc02 and UN-KC-6141 cells (2×10^5) were grown in 2 mL of growth medium in a 6-well tissue culture plate for 18-24 h until 60-80% confluency. The following solutions were prepared: Solution A) For each transfection, diluted 1 μL of miRNA-155 inhibitors (1 μM) (Table 2) or scrambled negative control miRNA (1 μM) (Qiagen, Germantown, MD, USA) into 50 μL Opti-MEM Transfection Medium (Invitrogen, Waltham, MA, USA). Solution B) For each transfection, diluted 3 μL of Hi-Perfect Transfection Reagent into 50 μL Opti-MEM Transfection Medium. Solution A was added directly to Solution B, mixed gently and the mixture incubated for 10-15 min at room temperature. […]

UN-KC-6141 cells = experiment: MTT cell viability assay, UN-KC-6141; assay type: cell-based, mouse
Protocol: as §3, §4

miR-155 [2] = experiment: miR-155 gene expression by RT-qPCR in Panc02 cells; assay type: cell-based, mouse
Protocol: as §1, §2

miR-155 [3] = experiment: miR-155 gene expression by RT-qPCR in UN-KC-6141 cells; assay type: cell-based, mouse
Protocol: as §1, §2

Panc02 cells = experiment: MTT cell viability assay, Panc02; assay type: cell-based, mouse
Protocol: as §3, §4

Substance: HSA-MIR-155-5P: Qiagen miRCURY LNA miRNA inhibitor (human), sequence 5′-3′ CCTATCACGATTAGCATT, SEQ ID NO: 2 (LNA-modified commercial inhibitor, pattern not given here; listed 3' to 5'; listed as Homo sapiens) [reference compound]
- miR-155 gene expression (miR-155 [1]): significantly depleted
- cell viability (MTT) (MiaPaCa-2 cells): suppressed

Substance: MMU-MIR-155-5P: Qiagen miRCURY LNA miRNA inhibitor (mouse), sequence 5′-3′ CCCCTATCACAATTACCATT, SEQ ID NO: 1 (CCCCTATCACAATTAGCATT; LNA-modified commercial inhibitor, pattern not given here; listed 3' to 5'; listed as Mus musculus) [reference compound]
- cell viability (MTT) (UN-KC-6141 cells): suppressed
- miR-155 gene expression (miR-155 [2]): significantly depleted
- miR-155 gene expression (miR-155 [3]): significantly depleted
- cell viability (MTT) (Panc02 cells): suppressed
